What was measured:
bluegrass = test: Test D preemergence; assay type: in vivo, Poa annua; settings: Poa annua, pre-emergence; for pest or weed control at 16 g/ha: 16 g ai/ha, scale 0 (no effect) to 100 (complete control), read-out: Plant response rating, Bluegrass; for pest or weed control at 31 g/ha: 31 g ai/ha; for pest or weed control at 31 g/ha / pest or weed control at 62 g/ha / pest or weed control at 125 g/ha: scale 0-100, read-out: Plant response rating, Bluegrass; for pest or weed control at 62 g/ha: 62 g ai/ha; for pest or weed control at 125 g/ha: 125 g ai/ha
How it was run: (§1)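 After treatment, visual injury versus untreated plants, 0–100 scale, assessed at 7 to 21 days. Applications were made preemergence to silt loam-sown seed and postemergence to seedlings 2–18 cm high in potting medium.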

green foxtail = test: Test D preemergence; assay type: in vivo, Setaria viridis; settings: Setaria viridis, pre-emergence; for pest or weed control at 16 g/ha: 16 g ai/ha, scale 0 (no effect) to 100 (complete control), read-out: Plant response rating, Foxtail, Green; for pest or weed control at 31 g/ha: 31 g ai/ha; for pest or weed control at 31 g/ha / pest or weed control at 62 g/ha / pest or weed control at 125 g/ha: scale 0-100, read-out: Plant response rating, Foxtail, Green; for pest or weed control at 62 g/ha: 62 g ai/ha; for pest or weed control at 125 g/ha: 125 g ai/ha
How it was run: as §1

oilseed rape = test: Test D preemergence; assay type: in vivo, Brassica napus; settings: Brassica napus, pre-emergence; for plant injury at 16 g/ha: 16 g ai/ha, scale 0 (no effect) to 100 (complete control), read-out: Plant response rating, Oilseed Rape; for plant injury at 31 g/ha: 31 g ai/ha; for plant injury at 31 g/ha / plant injury at 62 g/ha / plant injury at 125 g/ha: scale 0-100, read-out: Plant response rating, Oilseed Rape; for plant injury at 62 g/ha: 62 g ai/ha; for plant injury at 125 g/ha: 125 g ai/ha
How it was run: as §1

bromegrass, downy = test: Test D postemergence; assay type: in vivo, Bromus tectorum; settings: Bromus tectorum, post-emergence, Postemergence, scale 0 to 100 (0 no effect, 100 complete control), read-out: Plant response rating, Bromegrass, Downy; for pest or weed control at 16 g/ha: 16 g ai/ha; for pest or weed control at 31 g/ha: 31 g ai/ha; for pest or weed control at 62 g/ha: 62 g ai/ha; for pest or weed control at 125 g/ha: 125 g ai/ha
How it was run: as §1

field poppy = test: Test D postemergence; assay type: in vivo, Papaver rhoeas; settings: Papaver rhoeas, post-emergence; for pest or weed control at 16 g/ha: 16 g ai/ha, scale 0-100, read-out: Plant response rating, Field Poppy; for pest or weed control at 31 g/ha: 31 g ai/ha; for pest or weed control at 31 g/ha / pest or weed control at 62 g/ha / pest or weed control at 125 g/ha: scale 0 to 100 (0 no effect, 100 complete control), read-out: Plant response rating, Field Poppy; for pest or weed control at 62 g/ha: 62 g ai/ha; for pest or weed control at 125 g/ha: 125 g ai/ha
How it was run: as §1

field violet = test: Test D postemergence; assay type: in vivo, Viola arvensis; settings: Viola arvensis, post-emergence; for pest or weed control at 16 g/ha: 16 g ai/ha, scale 0-100, read-out: Plant response rating, Field Violet; for pest or weed control at 31 g/ha: 31 g ai/ha; for pest or weed control at 31 g/ha / pest or weed control at 62 g/ha / pest or weed control at 125 g/ha: scale 0 to 100 (0 no effect, 100 complete control), read-out: Plant response rating, Field Violet; for pest or weed control at 62 g/ha: 62 g ai/ha; for pest or weed control at 125 g/ha: 125 g ai/ha
How it was run: as §1

deadnettle = test: Test D postemergence; assay type: in vivo, Lamium amplexicaule; settings: Lamium amplexicaule, post-emergence; for pest or weed control at 16 g/ha: 16 g ai/ha, scale 0-100, read-out: Plant response rating, Deadnettle; for pest or weed control at 31 g/ha: 31 g ai/ha; for pest or weed control at 31 g/ha / pest or weed control at 62 g/ha / pest or weed control at 125 g/ha: scale 0 to 100 (0 no effect, 100 complete control), read-out: Plant response rating, Deadnettle; for pest or weed control at 62 g/ha: 62 g ai/ha; for pest or weed control at 125 g/ha: 125 g ai/ha
How it was run: as §1

kochia = test: Test D postemergence; assay type: in vivo, Kochia scoparia; settings: Bassia scoparia, post-emergence; for pest or weed control at 16 g/ha: 16 g ai/ha, scale 0-100, read-out: Plant response rating, Kochia; for pest or weed control at 31 g/ha: 31 g ai/ha; for pest or weed control at 31 g/ha / pest or weed control at 62 g/ha / pest or weed control at 125 g/ha: scale 0 to 100 (0 no effect, 100 complete control), read-out: Plant response rating, Kochia; for pest or weed control at 62 g/ha: 62 g ai/ha; for pest or weed control at 125 g/ha: 125 g ai/ha
How it was run: as §1

chamomile = test: Test D postemergence; assay type: in vivo, Matricaria inodora; settings: Tripleurospermum inodorum, post-emergence; for pest or weed control at 16 g/ha: 16 g ai/ha, scale 0-100, read-out: Plant response rating, Chamomile; for pest or weed control at 31 g/ha: 31 g ai/ha; for pest or weed control at 31 g/ha / pest or weed control at 62 g/ha / pest or weed control at 125 g/ha: scale 0 to 100 (0 no effect, 100 complete control), read-out: Plant response rating, Chamomile; for pest or weed control at 62 g/ha: 62 g ai/ha; for pest or weed control at 125 g/ha: 125 g ai/ha
How it was run: as §1

speedwell = test: Test D postemergence; assay type: in vivo, Veronica persica; settings: Veronica persica, post-emergence; for pest or weed control at 16 g/ha: 16 g ai/ha, scale 0-100, read-out: Plant response rating, Speedwell; for pest or weed control at 31 g/ha: 31 g ai/ha; for pest or weed control at 31 g/ha / pest or weed control at 62 g/ha / pest or weed control at 125 g/ha: scale 0 to 100 (0 no effect, 100 complete control), read-out: Plant response rating, Speedwell; for pest or weed control at 62 g/ha: 62 g ai/ha; for pest or weed control at 125 g/ha: 125 g ai/ha
How it was run: as §1

wild mustard = test: Test D postemergence; assay type: in vivo, Sinapis arvensis; settings: Brassica, post-emergence; for pest or weed control at 16 g/ha: 16 g ai/ha, scale 0-100, read-out: Plant response rating, Mustard, Wild; for pest or weed control at 31 g/ha: 31 g ai/ha; for pest or weed control at 31 g/ha / pest or weed control at 62 g/ha / pest or weed control at 125 g/ha: scale 0 to 100 (0 no effect, 100 complete control), read-out: Plant response rating, Mustard, Wild; for pest or weed control at 62 g/ha: 62 g ai/ha; for pest or weed control at 125 g/ha: 125 g ai/ha
How it was run: as §1

wild radish = test: Test D postemergence; assay type: in vivo, Raphanus raphanistrum; settings: Raphanus raphanistrum, post-emergence; for pest or weed control at 16 g/ha: 16 g ai/ha, scale 0-100, read-out: Plant response rating, Radish, Wild; for pest or weed control at 31 g/ha: 31 g ai/ha; for pest or weed control at 31 g/ha / pest or weed control at 62 g/ha / pest or weed control at 125 g/ha: scale 0 to 100 (0 no effect, 100 complete control), read-out: Plant response rating, Radish, Wild; for pest or weed control at 62 g/ha: 62 g ai/ha; for pest or weed control at 125 g/ha: 125 g ai/ha
How it was run: as §1

FC(F)(F)COc1cnn(-c2ccccc2Oc2ncc(Cl)cn2)c1 [Compound 138, 5-chloro-2-[2-[4-(2,2,2-trifluoroethoxy)-1H-pyrazol-1-yl]phenoxy]pyrimidine]
pest or weed control at 16 g/ha (bluegrass): 0% | pest or weed control at 31 g/ha (bluegrass): 0% | pest or weed control at 62 g/ha (bluegrass): 0% | pest or weed control at 125 g/ha (bluegrass): 10% | pest or weed control at 16 g/ha (green foxtail): 0% | pest or weed control at 31 g/ha (green foxtail): 0% | pest or weed control at 62 g/ha (green foxtail): 20% | pest or weed control at 125 g/ha (green foxtail): 100% | plant injury at 16 g/ha (oilseed rape): 35% | plant injury at 31 g/ha (oilseed rape): 30% | plant injury at 62 g/ha (oilseed rape): 50% | plant injury at 125 g/ha (oilseed rape): 65% | pest or weed control at 16 g/ha (bromegrass, downy): 0% | pest or weed control at 31 g/ha (bromegrass, downy): 0% | pest or weed control at 62 g/ha (bromegrass, downy): 5% | pest or weed control at 125 g/ha (bromegrass, downy): 5% | pest or weed control at 16 g/ha (field poppy): 30% | pest or weed control at 31 g/ha (field poppy): 35% | pest or weed control at 62 g/ha (field poppy): 40% | pest or weed control at 125 g/ha (field poppy): 75% | pest or weed control at 16 g/ha (field violet): 25% | pest or weed control at 31 g/ha (field violet): 50% | pest or weed control at 62 g/ha (field violet): 65% | pest or weed control at 125 g/ha (field violet): 75% | pest or weed control at 16 g/ha (deadnettle): 5% | pest or weed control at 31 g/ha (deadnettle): 5% | pest or weed control at 62 g/ha (deadnettle): 15% | pest or weed control at 125 g/ha (deadnettle): 25% | pest or weed control at 16 g/ha (kochia): 25% | pest or weed control at 31 g/ha (kochia): 40% | pest or weed control at 62 g/ha (kochia): 55% | pest or weed control at 125 g/ha (kochia): 75% | pest or weed control at 16 g/ha (chamomile): 0% | pest or weed control at 31 g/ha (chamomile): 0% | pest or weed control at 62 g/ha (chamomile): 0% | pest or weed control at 125 g/ha (chamomile): 0% | pest or weed control at 16 g/ha (speedwell): 70% | pest or weed control at 31 g/ha (speedwell): 70% | pest or weed control at 62 g/ha (speedwell): 75% | pest or weed control at 125 g/ha (speedwell): 75% | pest or weed control at 16 g/ha (wild mustard): 65% | pest or weed control at 31 g/ha (wild mustard): 75% | pest or weed control at 62 g/ha (wild mustard): 75% | pest or weed control at 125 g/ha (wild mustard): 75% | pest or weed control at 16 g/ha (wild radish): 60% | pest or weed control at 31 g/ha (wild radish): 65% | pest or weed control at 62 g/ha (wild radish): 80% | pest or weed control at 125 g/ha (wild radish): 90%

FC(F)(F)c1cn(-c2ccccc2Oc2ncc(Cl)cn2)nn1 [Compound 166, 5-chloro-2-[2-[4-(trifluoromethyl)-1H-1,2,3-triazol-1-yl]phenoxy]pyrimidine]
pest or weed control at 16 g/ha (bluegrass): 5% | pest or weed control at 31 g/ha (bluegrass): 20% | pest or weed control at 62 g/ha (bluegrass): 65% | pest or weed control at 125 g/ha (bluegrass): 100% | pest or weed control at 16 g/ha (green foxtail): 25% | pest or weed control at 31 g/ha (green foxtail): 65% | pest or weed control at 62 g/ha (green foxtail): 100% | pest or weed control at 125 g/ha (green foxtail): 100% | plant injury at 16 g/ha (oilseed rape): 35% | plant injury at 31 g/ha (oilseed rape): 50% | plant injury at 62 g/ha (oilseed rape): 100% | plant injury at 125 g/ha (oilseed rape): 100% | pest or weed control at 16 g/ha (bromegrass, downy): 15% | pest or weed control at 31 g/ha (bromegrass, downy): 20% | pest or weed control at 62 g/ha (bromegrass, downy): 35% | pest or weed control at 125 g/ha (bromegrass, downy): 50% | pest or weed control at 16 g/ha (field poppy): 40% | pest or weed control at 31 g/ha (field poppy): 60% | pest or weed control at 62 g/ha (field poppy): 80% | pest or weed control at 125 g/ha (field poppy): 75% | pest or weed control at 16 g/ha (field violet): 60% | pest or weed control at 31 g/ha (field violet): 65% | pest or weed control at 62 g/ha (field violet): 70% | pest or weed control at 125 g/ha (field violet): 85% | pest or weed control at 16 g/ha (deadnettle): 40% | pest or weed control at 31 g/ha (deadnettle): 60% | pest or weed control at 62 g/ha (deadnettle): 65% | pest or weed control at 125 g/ha (deadnettle): 70% | pest or weed control at 16 g/ha (kochia): 65% | pest or weed control at 31 g/ha (kochia): 65% | pest or weed control at 62 g/ha (kochia): 90% | pest or weed control at 125 g/ha (kochia): 95% | pest or weed control at 16 g/ha (chamomile): 5% | pest or weed control at 31 g/ha (chamomile): 5% | pest or weed control at 62 g/ha (chamomile): 10% | pest or weed control at 125 g/ha (chamomile): 15% | pest or weed control at 16 g/ha (speedwell): 70% | pest or weed control at 31 g/ha (speedwell): 85% | pest or weed control at 62 g/ha (speedwell): 100% | pest or weed control at 125 g/ha (speedwell): 100% | pest or weed control at 16 g/ha (wild mustard): 75% | pest or weed control at 31 g/ha (wild mustard): 80% | pest or weed control at 62 g/ha (wild mustard): 85% | pest or weed control at 125 g/ha (wild mustard): 100% | pest or weed control at 16 g/ha (wild radish): 70% | pest or weed control at 31 g/ha (wild radish): 70% | pest or weed control at 62 g/ha (wild radish): 95% | pest or weed control at 125 g/ha (wild radish): 95%

From patent US9695155B2, “Herbicidal substituted pyrimidinyloxy benzene compounds” (E. I. DU PONT DE NEMOURS AND COMPANY, priority 2013, dated 2017)
